Experimental data published in PubChem BioAssay AID192 (DTP/NCI, 2004).
Values joined by “and” are separate entries in the source; they are usually repeats but may differ in a detail not shown here. Equal values may be shown once. Toxic doses and inconclusive results are not listed. How the source made its calls: active means survival T/C of 150% or more; inactive means T/C below 125% in these data. Numbered stars: 1 amine (or outer) side, 2 acyl side, 3 side chain; on linkers, the order of the positions; unused ones are H or OH. Bridge positions count the residues as written; N and C are the ends. Square brackets hold non-standard residues; d marks the D form. Peptide text beside a SMILES is read from it. I, II: the chains in the order shown. * marks the point of attachment. Actinocin(1to9) = Cc1c2oc3c(C)ccc(C(=O)[*:2])c3nc-2c(C(=O)[*:1])c(N)c1=O; NMeV = CN[CH](C(=O)O)C(C)C; Boc = CC(C)(C)OC(=O)*; Sar = CNCC(=O)O; NHNH2 = NN*

Test system: BDF1 mice, B16 melanoma ip, median survival T/C
Assay: NCI In Vivo Anticancer Drug Screen. Data for tumor model B16 Melanoma (intraperitoneal) in B6D2F1 (BDF1) mice
Details: endpoint: median survival time, higher = longer survival
Outline: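 Each result divides a survival or tumor-size measurement in the compound-treated group by the same measurement in the vehicle group.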

[1] = dose: 100.0 mg/kg/injection, schedule: Q01DX009 (ip), vehicle: Klucel (hydroxypropylcellulose) (HPC)
[2] = dose: 200.0 mg/kg/injection, schedule: Q01DX009 (ip), vehicle: Klucel (hydroxypropylcellulose) (HPC)
[3] = dose: 400.0 mg/kg/injection, schedule: Q01DX009 (ip), vehicle: Klucel (hydroxypropylcellulose) (HPC)
[4] = dose: 50.0 mg/kg/injection, schedule: Q01DX009 (ip), vehicle: saline with Tween-80
[5] = dose: 100.0 mg/kg/injection, schedule: Q01DX009 (ip), vehicle: saline with Tween-80
[6] = dose: 200.0 mg/kg/injection, schedule: Q01DX009 (ip), vehicle: saline with Tween-80
[7] = dose: 400.0 mg/kg/injection, schedule: Q01DX009 (ip), vehicle: saline with Tween-80
[8] = dose: 25.0 mg/kg/injection, schedule: Q01DX009 (ip), vehicle: Klucel (hydroxypropylcellulose) (HPC)
[9] = dose: 50.0 mg/kg/injection, schedule: Q01DX009 (ip), vehicle: Klucel (hydroxypropylcellulose) (HPC)
[10] = dose: 10.0 mg/kg/injection, schedule: Q01DX009 (ip), vehicle: saline with Tween-80
[11] = dose: 20.0 mg/kg/injection, schedule: Q01DX009 (ip), vehicle: saline with Tween-80
[12] = dose: 6.25 mg/kg/injection, schedule: Q01DX009 (ip), vehicle: Klucel (hydroxypropylcellulose) (HPC)
[13] = dose: 12.5 mg/kg/injection, schedule: Q01DX009 (ip), vehicle: Klucel (hydroxypropylcellulose) (HPC)
[14] = dose: 25.0 mg/kg/injection, schedule: Q01DX009 (ip), vehicle: saline
[15] = dose: 50.0 mg/kg/injection, schedule: Q01DX009 (ip), vehicle: saline
[16] = dose: 100.0 mg/kg/injection, schedule: Q01DX009 (ip), vehicle: saline
[17] = dose: 200.0 mg/kg/injection, schedule: Q01DX009 (ip), vehicle: saline
[18] = dose: 25.0 mg/kg/injection, schedule: Q01DX009 (ip), vehicle: saline with Tween-80

Measured: T/C

CCC(C)C1NC(=O)C(NC(=O)c2c3nc4c(C(=O)NC5C(=O)NC(C(C)CC)C(=O)N6CCCC6C(=O)N(C)CC(=O)N(C)C(C(C)C)C(=O)OC5C)ccc(C)c4oc-3c(C)c(=O)c2N)C(C)OC(=O)C(C(C)C)N(C)C(=O)CN(C)C(=O)C2CCCN2C1=O (stereo not drawn) (I: TIP[Sar][NMeV] / II: TIP[Sar][NMeV]; ester I:1-I:C, II:1-II:C; linker I:N-II:N via Actinocin(1to9); configuration not given here)
inactive: dose: 0.2 mg/kg/injection, schedule: Q01DX001 (ip), vehicle: water 120 % of control | dose: 0.4 mg/kg/injection, schedule: Q01DX001 (ip), vehicle: water 114 % of control | dose: 0.8 mg/kg/injection, schedule: Q01DX001 (ip), vehicle: water 123 % of control | dose: 12.5 micrograms/kg/injection, schedule: Q01DX009 (ip), vehicle: water 108 % of control | dose: 25.0 micrograms/kg/injection, schedule: Q01DX009 (ip), vehicle: water 119 % of control | dose: 75.0 micrograms/kg/injection, schedule: Q04DX003 (ip), vehicle: water 115 % of control | dose: 150.0 micrograms/kg/injection, schedule: Q04DX003 (ip), vehicle: water 114 % of control

C=C(C)[C@H]1Cc2c(ccc3c2O[C@@H]2COc4cc(OC)c(OC)cc4[C@@H]2C3=O)O1
inactive: dose: 4.0 mg/kg/injection, schedule: Q01DX009 (ip), vehicle: saline with Tween-80 92 % of control and 99 % of control | dose: 8.0 mg/kg/injection, schedule: Q01DX009 (ip), vehicle: saline with Tween-80 105 % of control | dose: 16.0 mg/kg/injection, schedule: Q01DX009 (ip), vehicle: saline with Tween-80 98 % of control

COc1ccc(NC(=O)Oc2ccc(-c3ccccc3)cc2Br)cc1
inactive: [1] 93 % of control | dose: 100.0 mg/kg/injection, schedule: Q04DX003 (ip), vehicle: Klucel (hydroxypropylcellulose) (HPC) 103 % of control | [2] 93 % of control | dose: 200.0 mg/kg/injection, schedule: Q04DX003 (ip), vehicle: Klucel (hydroxypropylcellulose) (HPC) 112 % of control | [3] 96 % of control | dose: 400.0 mg/kg/injection, schedule: Q04DX003 (ip), vehicle: Klucel (hydroxypropylcellulose) (HPC) 109 % of control

Cc1ccc(S(=O)(=O)Oc2ccc(-c3ccc(Br)cc3)cc2)cc1
inactive: [4] 96 % of control | [5] 93 % of control | [6] 86 % of control | [7] 91 % of control

CNC(=O)Nc1c(C)cccc1C
inactive: [1] 96 % of control | [2] 100 % of control

CC(Br)C1(c2cccc([N+](=O)[O-])c2)OCCO1 (stereo not drawn)
inactive: dose: 25.0 mg/kg/injection, schedule: Q04DX003 (ip), vehicle: Klucel (hydroxypropylcellulose) (HPC) 94 % of control | dose: 50.0 mg/kg/injection, schedule: Q04DX003 (ip), vehicle: Klucel (hydroxypropylcellulose) (HPC) 92 % of control

COc1cc2c(cc1OC)C13CCN4CC5=CCOC6CC(=O)N2C1C6C5CC43 (stereo not drawn) (tested in a mixture with another compound)
inactive: [8] 103 % of control | [9] 91 % of control

Cc1cc(C)c(CCl)cc1CCl
inactive: [10] 110 % of control | [11] 95 % of control | dose: 20.0 mg/kg/injection, schedule: Q04DX003 (ip), vehicle: saline with Tween-80 100 % of control | dose: 40.0 mg/kg/injection, schedule: Q01DX009 (ip), vehicle: saline with Tween-80 102 % of control | dose: 40.0 mg/kg/injection, schedule: Q04DX003 (ip), vehicle: saline with Tween-80 100 % of control

Clc1sc2ccccc2c1Cl
inactive: [12] 93 % of control | [13] 92 % of control | [8] 91 % of control | [9] 90 % of control

C[N+]1(C)C2CC(=O)CC1C1CC12 (stereo not drawn) (tested in a mixture with another compound)
inactive: [14] 102 % of control | [15] 89 % of control | [16] 99 % of control | [17] 100 % of control

Cc1cccc(C)c1NC(=O)c1ccccc1C(=O)O
inactive: [5] 97 % of control | [6] 92 % of control | [7] 95 % of control

CCc1cc(C)cc(OC(=O)Nc2cccc(Cl)c2)c1
inactive: [5] 90 % of control | [6] 92 % of control | [7] 86 % of control

O=C1C=CC(=O)N1Cc1ccco1
inactive: dose: 65.0 mg/kg/injection, schedule: Q01DX009 (ip), vehicle: saline 108 % of control | [16] 103 % of control and 117 % of control | dose: 150.0 mg/kg/injection, schedule: Q01DX009 (ip), vehicle: saline 114 % of control and 117 % of control | [17] 113 % of control | dose: 400.0 mg/kg/injection, schedule: Q01DX009 (ip), vehicle: saline 113 % of control

NN1CCCC1
inactive: [14] 110 % of control | [15] 102 % of control | [16] 94 % of control

Cn1c2c(c3ccccc3c1=O)C(=O)c1ccccc1-2
inactive: [18] 97 % of control | [4] 89 % of control

ClC(c1ccccc1)c1ccc(Br)cc1 (stereo not drawn)
inactive: [9] 105 % of control | [1] 97 % of control | [2] 88 % of control

CC(C)=CCOc1ccc2ccc(=O)oc2c1
inactive: dose: 5.0 mg/kg/injection, schedule: Q01DX009 (ip), vehicle: saline with Tween-80 108 % of control | [10] 105 % of control | [11] 99 % of control

CCC[CH2][Sn]1([CH2]CCC)[S]CC[N]1S(=O)(=O)c1ccc(C)cc1
inactive: dose: 6.0 mg/kg/injection, schedule: Q01DX009 (ip), vehicle: saline with Tween-80 95 % of control | dose: 12.5 mg/kg/injection, schedule: Q01DX009 (ip), vehicle: saline with Tween-80 108 % of control

O=c1ccc2ccccc2o1
inactive: [8] 100 % of control | [9] 105 % of control | [1] 111 % of control | [2] 101 % of control

Nc1ccc(-c2ccc(N)c([N+](=O)[O-])c2)cc1[N+](=O)[O-]
inactive: [5] 100 % of control | [6] 97 % of control | [7] 105 % of control

CCc1c(CC(=O)O)c2cc(C)ccc2n1Cc1ccc(Cl)cc1
inactive: dose: 3.12 mg/kg/injection, schedule: Q01DX009 (ip), vehicle: Klucel (hydroxypropylcellulose) (HPC) 110 % of control and 119 % of control | [12] 106 % of control and 114 % of control | [13] 91 % of control and 111 % of control | [8] 88 % of control and 106 % of control and 97 % of control | [18] 97 % of control | [9] 101 % of control and 104 % of control and 105 % of control | [4] 97 % of control | dose: 50.0 mg/kg/injection, schedule: Q04DX003 (ip), vehicle: saline with Tween-80 104 % of control | [1] 88 % of control and 95 % of control and 90 % of control | [5] 88 % of control | dose: 100.0 mg/kg/injection, schedule: Q04DX003 (ip), vehicle: saline with Tween-80 88 % of control

CN(CCOc1ccccc1O)CCOc1ccccc1O
inactive: [1] 111 % of control | [2] 105 % of control

CCc1ccc(NC(=O)NC(C)C)cc1
inactive: [9] 112 % of control | [1] 109 % of control | [2] 103 % of control

CCOc1ccc(NC(=O)Nc2cccc3ccccc23)cc1
inactive: dose: 1.56 mg/kg/injection, schedule: Q01DX009 (ip), vehicle: Klucel (hydroxypropylcellulose) (HPC) 91 % of control | dose: 3.13 mg/kg/injection, schedule: Q01DX009 (ip), vehicle: Klucel (hydroxypropylcellulose) (HPC) 91 % of control | [12] 86 % of control and 91 % of control

NC(=O)c1cc(N2CC2)c([N+](=O)[O-])cc1[N+](=O)[O-]
inactive: dose: 5.0 mg/kg/injection, schedule: Q01DX009 (ip), vehicle: saline 104 % of control | dose: 10.0 mg/kg/injection, schedule: Q01DX009 (ip), vehicle: saline 109 % of control | dose: 20.0 mg/kg/injection, schedule: Q01DX009 (ip), vehicle: saline 95 % of control

CC(C)CC(NC(=O)C(Cc1c[nH]c2ccccc12)NC(=O)OC(C)(C)C)C(=O)NN (stereo not drawn) (Boc-Trp-Leu-NHNH2; configuration not given here)
inactive: [14] 88 % of control | [15] 98 % of control | [16] 88 % of control | [17] 87 % of control

Cc1cccc(NC(=O)c2cccc(C(=O)Nc3cccc(C)c3C)c2)c1C
inactive: [1] 100 % of control | [2] 90 % of control | [3] 86 % of control

NCC(O)c1ccc(O)c(O)c1 (stereo not drawn)
inactive: dose: 1.56 mg/kg/injection, schedule: Q01DX009 (ip), vehicle: saline 97 % of control and 105 % of control | dose: 3.12 mg/kg/injection, schedule: Q01DX009 (ip), vehicle: saline 95 % of control and 107 % of control | dose: 6.25 mg/kg/injection, schedule: Q01DX009 (ip), vehicle: saline 100 % of control and 106 % of control | dose: 12.5 mg/kg/injection, schedule: Q01DX009 (ip), vehicle: saline 99 % of control and 102 % of control
